{"source": "patent US8465736B2", "about": "“Glutadon” (priority 2006, dated 2013)", "key": {"advanced carcinomas": {"tested_on": "advanced carcinomas", "experiment": "Phase I/IIa clinical study (GlutaDON): stabilization/progression by RECIST criteria", "assay_type": "in vivo, human", "conditions": "for Progression (share of patients) / Stabilization (share of patients): Total", "procedure": "In a phase I/IIa clinical study (GlutaDON®), altogether 58 patients with advanced carcinomas were treated with the combination of the two active ingredients described herein. The patients received PEG-PGA in a dosage of 120 IU/m^2 twice a week by the intravenous route, the infusion lasting 15 minutes. The administration of PEG-PGA was followed after 2-4 hours by the intravenous application of DON in a concentration of 5-185 mg/m^2. The duration of the infusion was again 15 minutes. […] According to the internationally accepted RECIST criteria, the term “stabilization” means that the increase in the measurable tumor diameters was less than 20% six weeks or more after the screening, i.e. after the staging of the tumor before the first treatment. According to the internationally accepted RECIST criteria, the term “progression” means that a growth of more than 20%, or a subjective progression, or new lesions were observed within six weeks."}, "[1]": {"experiment": "GlutaDON study: side effects (nausea and vomiting)", "assay_type": "in vivo, human", "conditions": "DON up to 185 mg/m^2 in combination with PEG-PGA 120 IU/m^2 twice a week", "procedure": "In a phase I/IIa clinical study (GlutaDON®), altogether 58 patients with advanced carcinomas were treated with the combination of the two active ingredients described herein. The patients received PEG-PGA in a dosage of 120 IU/m^2 twice a week by the intravenous route, the infusion lasting 15 minutes. The administration of PEG-PGA was followed after 2-4 hours by the intravenous application of DON in a concentration of 5-185 mg/m^2. The duration of the infusion was again 15 minutes."}, "[2]": {"conditions": "dosages of up to 600 mg/m^2 twice a week; cited from earlier work"}, "[3]": {"conditions": "Colon, high DON dosage 105-185 mg/m^2, with PEG-PGA 120 IU/m^2"}, "[4]": {"conditions": "Colon, low DON dosage 5-80 mg/m^2, with PEG-PGA 120 IU/m^2"}, "[5]": {"conditions": "Kidney, high DON dosage 105-185 mg/m^2 i.v., after PEG-PGA 120 IU/m^2 twice a week"}, "[6]": {"conditions": "Kidney, low DON dosage 5-80 mg/m^2 i.v., after PEG-PGA 120 IU/m^2 twice a week"}, "[7]": {"conditions": "Other indications, high DON dosage 105-185 mg/m^2, with PEG-PGA 120 IU/m^2"}, "[8]": {"conditions": "Other indications, low DON dosage 5-80 mg/m^2, with PEG-PGA 120 IU/m^2"}, "[9]": {"conditions": "Ovary, high DON dosage 105-185 mg/m^2, with PEG-PGA 120 IU/m^2"}, "[10]": {"conditions": "Ovary, low DON dosage 5-80 mg/m^2, with PEG-PGA 120 IU/m^2"}, "[11]": {"conditions": "Prostate, high DON dosage 105-185 mg/m^2, with PEG-PGA 120 IU/m^2"}, "[12]": {"conditions": "Prostate, low DON dosage 5-80 mg/m^2, with PEG-PGA 120 IU/m^2"}, "[13]": {"conditions": "Total (10 patients), high DON dosage 105-185 mg/m^2, with PEG-PGA 120 IU/m^2"}, "[14]": {"conditions": "Total (36 patients), low DON dosage 5-80 mg/m^2, with PEG-PGA 120 IU/m^2"}, "[15]": {"conditions": "high DON dosage 105-185 mg/m^2, with PEG-PGA 120 IU/m^2"}, "[16]": {"conditions": "low DON dosage 5-80 mg/m^2, with PEG-PGA 120 IU/m^2"}}, "note": "“Also recorded” adds a separate entry of the source."}
{"smiles": "[N-]=[N+]=CC(=O)CC[C@H](N)C(=O)O", "note": "[DON, 6-diazo-5-oxo-L-norleucine]", "values": [{"measurement": "Progression (number of patients)", "setting": "advanced carcinomas; [3]", "result": 1, "unit": "patients"}, {"measurement": "Stabilization (number of patients)", "setting": "advanced carcinomas; [3]", "result": 0, "unit": "patients"}, {"measurement": "Progression (number of patients)", "setting": "advanced carcinomas; [4]", "result": 4, "unit": "patients"}, {"measurement": "Stabilization (number of patients)", "setting": "advanced carcinomas; [4]", "result": 2, "unit": "patients"}, {"measurement": "Progression (number of patients)", "setting": "advanced carcinomas; [5]", "result": 0, "unit": "patients"}, {"measurement": "Stabilization (number of patients)", "setting": "advanced carcinomas; [5]", "result": 4, "unit": "patients"}, {"measurement": "Progression (number of patients)", "setting": "advanced carcinomas; [6]", "result": 4, "unit": "patients"}, {"measurement": "Stabilization (number of patients)", "setting": "advanced carcinomas; [6]", "result": 5, "unit": "patients"}, {"measurement": "Progression (number of patients)", "setting": "advanced carcinomas; [7]", "result": 1, "unit": "patients"}, {"measurement": "Stabilization (number of patients)", "setting": "advanced carcinomas; [7]", "result": 0, "unit": "patients"}, {"measurement": "Progression (number of patients)", "setting": "advanced carcinomas; [8]", "result": 10, "unit": "patients"}, {"measurement": "Stabilization (number of patients)", "setting": "advanced carcinomas; [8]", "result": 4, "unit": "patients"}, {"measurement": "Progression (number of patients)", "setting": "advanced carcinomas; [9]", "result": 0, "unit": "patients"}, {"measurement": "Stabilization (number of patients)", "setting": "advanced carcinomas; [9]", "result": 1, "unit": "patients"}, {"measurement": "Progression (number of patients)", "setting": "advanced carcinomas; [10]", "result": 4, "unit": "patients"}, {"measurement": "Stabilization (number of patients)", "setting": "advanced carcinomas; [10]", "result": 1, "unit": "patients"}, {"measurement": "Progression (number of patients)", "setting": "advanced carcinomas; [11]", "result": 1, "unit": "patients"}, {"measurement": "Stabilization (number of patients)", "setting": "advanced carcinomas; [11]", "result": 2, "unit": "patients"}, {"measurement": "Progression (number of patients)", "setting": "advanced carcinomas; [12]", "result": 1, "unit": "patients"}, {"measurement": "Stabilization (number of patients)", "setting": "advanced carcinomas; [12]", "result": 1, "unit": "patients"}, {"measurement": "Progression (number of patients)", "setting": "advanced carcinomas; [13]", "result": 3, "unit": "patients"}, {"measurement": "Stabilization (number of patients)", "setting": "advanced carcinomas; [13]", "result": 7, "unit": "patients"}, {"measurement": "Progression (number of patients)", "setting": "advanced carcinomas; [14]", "result": 23, "unit": "patients"}, {"measurement": "Stabilization (number of patients)", "setting": "advanced carcinomas; [14]", "result": 13, "unit": "patients"}, {"measurement": "Progression (share of patients)", "setting": "advanced carcinomas; [15]", "result": 30, "unit": "%"}, {"measurement": "Stabilization (share of patients)", "setting": "advanced carcinomas; [15]", "result": 70, "unit": "%"}, {"measurement": "Progression (share of patients)", "setting": "advanced carcinomas; [16]", "result": 64, "unit": "%"}, {"measurement": "Stabilization (share of patients)", "setting": "advanced carcinomas; [16]", "result": 36, "unit": "%"}, {"measurement": "Nausea and vomiting as dose-limiting side effects", "setting": "[1]", "result": "without nausea and vomiting being found to be dosage-limiting side effects; also recorded: not dose-limiting"}, {"measurement": "Action of DON used by itself", "setting": "[2]", "result": "very modest action"}, {"measurement": "Nausea and vomiting with DON used by itself", "setting": "[2]", "result": "dosage-limiting side effects"}]}
